Like-named read-outs stand apart in the source and are kept apart here.
Tests used:
XO [1] = biological target: T1, XO (Bos taurus, UniProt P80457); experiment: In vitro xanthine oxidase inhibition assay (uric acid formation, absorbance at 290 nm); format: biochemical
XO [2] = biological target: T1, XO; conditions: cited from earlier work

T1 sequence (P80457 whole entry): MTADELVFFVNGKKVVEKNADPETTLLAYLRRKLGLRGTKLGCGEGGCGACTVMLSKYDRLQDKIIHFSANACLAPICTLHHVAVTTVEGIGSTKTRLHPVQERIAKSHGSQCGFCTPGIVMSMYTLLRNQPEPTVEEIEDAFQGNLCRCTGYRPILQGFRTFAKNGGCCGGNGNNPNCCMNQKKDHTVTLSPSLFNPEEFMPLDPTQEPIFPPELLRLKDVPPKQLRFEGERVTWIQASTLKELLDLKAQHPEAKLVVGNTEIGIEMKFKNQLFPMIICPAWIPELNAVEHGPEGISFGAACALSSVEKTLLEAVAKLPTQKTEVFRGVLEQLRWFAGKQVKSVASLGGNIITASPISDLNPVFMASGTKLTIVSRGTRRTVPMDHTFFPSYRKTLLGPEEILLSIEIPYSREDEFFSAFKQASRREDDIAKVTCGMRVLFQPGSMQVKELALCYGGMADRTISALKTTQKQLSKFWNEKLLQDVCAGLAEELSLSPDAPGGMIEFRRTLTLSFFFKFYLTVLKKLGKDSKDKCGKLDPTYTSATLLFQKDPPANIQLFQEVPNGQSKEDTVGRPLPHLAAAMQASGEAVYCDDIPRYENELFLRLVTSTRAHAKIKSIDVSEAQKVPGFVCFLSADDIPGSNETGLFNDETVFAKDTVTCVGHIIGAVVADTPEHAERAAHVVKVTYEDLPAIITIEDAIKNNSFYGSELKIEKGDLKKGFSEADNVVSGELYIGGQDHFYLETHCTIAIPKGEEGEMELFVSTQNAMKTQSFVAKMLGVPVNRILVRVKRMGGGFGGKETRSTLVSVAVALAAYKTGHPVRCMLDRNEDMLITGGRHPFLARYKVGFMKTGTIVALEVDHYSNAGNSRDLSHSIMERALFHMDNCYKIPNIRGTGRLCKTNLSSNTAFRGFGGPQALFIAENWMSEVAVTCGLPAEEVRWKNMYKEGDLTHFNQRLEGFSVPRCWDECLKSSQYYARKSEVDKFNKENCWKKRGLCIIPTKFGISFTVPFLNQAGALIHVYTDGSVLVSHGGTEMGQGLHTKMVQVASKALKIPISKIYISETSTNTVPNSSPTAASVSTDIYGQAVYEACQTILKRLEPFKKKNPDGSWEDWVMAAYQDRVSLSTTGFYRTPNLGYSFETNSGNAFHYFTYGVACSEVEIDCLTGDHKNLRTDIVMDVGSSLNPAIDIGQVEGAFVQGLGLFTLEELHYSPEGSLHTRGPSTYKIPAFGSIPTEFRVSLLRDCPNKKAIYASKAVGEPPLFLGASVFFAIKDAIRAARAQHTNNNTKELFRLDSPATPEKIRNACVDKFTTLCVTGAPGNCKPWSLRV

Structure (SMILES)	IC50 (XO [1])	further results
COC(=O)[C@]1(O)C[C@@H](O)[C@@H](O)[C@H](OC(=O)/C=C/c2ccc(O)c(O)c2)C1 [compound 1, methyl chlorogenate]	425 µM	
CCOC(=O)[C@]1(O)C[C@@H](O)[C@@H](O)[C@H](OC(=O)/C=C/c2ccc(O)c(O)c2)C1 [compound 3, ethyl chlorogenate]	450 µM	
O=C(O)c1ccccc1 [compound 8, benzoic acid]	104 µM	inhibition of XO at low concentration (in words) (XO [1]; concentration lower than 200 µM): high inhibition
CCCCOC(=O)C1(O)CC(O)C(O)C(OC(=O)C=Cc2ccc(O)c(O)c2)C1 (stereo not drawn) [compound 2, butyl chlorogenate]	399 µM	
O=C(/C=C/c1ccc(O)c(O)c1)O[C@@H]1C[C@](O)(C(=O)O)C[C@@H](O)[C@H]1O [compound 4, chlorogenic acid]	297 µM	type of XO inhibition (XO [2]; ref 45): noncompetitive inhibition; type of XO inhibition (XO [2]; ref 46): non-competitive inhibitory effect

Continued, in another order:

IC50 (XO [1])	Structure (SMILES)	further results
651 µM	O=C(O)c1ccc(O)c(O)c1 [compound 9, protocatechuic acid]	
600 µM	COC(=O)C1(O)C[C@@H](O)C(OC(=O)/C=C/c2ccc(O)c(O)c2)[C@H](O)C1 (stereo partly drawn) [compound 5, cryptochlorogenic acid methyl ester]	
242 µM	O=C(O)/C=C/c1ccc(O)c(O)c1 [compound 6, caffeic acid]	
351 µM	O=C(O)/C=C/c1ccc(O)cc1 [compound 7, p-coumaric acid]	

From PMC11434067, “Bioassay-Guided Isolation and Identification of Xanthine Oxidase Inhibitory Constituents from the Fruits of Chaenomeles speciosa (Sweet) Nakai” (Molecules, 2024)
